Measurements from patent US12263248B2, “Compounds and compositions for intracellular delivery of therapeutic agents” (ModernaTX, Inc., priority 2018, dated 2025).

Legend:
[1] = Particle size and polydispersity index of nanoparticle compositions (Zetasizer Nano ZS); format: physicochemical; details: Table 1A; for Size (nm): lipid:DSPC:cholesterol:PEG-DMG 50:10:38.5:1.5 mol %
Procedure, shortened: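 Particle size and PDI were measured on a Zetasizer Nano ZS with the nanoparticle compositions dispersed in 1×PBS.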

[2] = Lipid clearance: lipid level in mouse liver tissue (LC-MS/MS); format: in vivo; details: Table 3E, mouse liver
Method: Quantification of Lipid by LC-MS/MS: Liver samples were homogenized following addition of 19 eq. (w/v) of water (DF=20). Protein was precipitated and analyzed against calibration standards prepared in matching blank. Chromatographic separation and quantification was accomplished with a LC-MS/MS System. Samples were injected and separated via HPLC A triple-quadrupole MS/MS system operated in positive ion mode was used for signal detection.

[3] = Apparent (surface) pKa of the LNP formulation (TNS assay); format: physicochemical; details: Table 1A
Procedure, shortened: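 LNP (0.04 mg/mL mRNA) mixed with TNS reagent in 21 buffers spanning about pH 3-12, in triplicate; fluorescence plotted against pH as sigmoidal curve. Apparent pKa taken as […] curve inflection point; validated in 1× PBS and 20 mM Tris w/8% sucrose.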

luciferase (Luc) mRNA = assay: Luc expression, whole body bioluminescence after intravenous administration to mice; format: in vivo; details: Table 3E; intravenous
Procedure, shortened: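 Luc mRNA nanoparticle formulations given intravenously to mice (n=6) at 0.5 mg/kg; whole-body bioluminescence imaged at 3, 6 and 24 h. CD-1 mice received IP D-luciferin (200 μL of 15 mg/mL) 15 min before imaging; total flux quantified by region of interest.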

[4] = Encapsulation efficiency of RNA (QUANT-IT RIBOGREEN RNA assay); format: physicochemical; details: Table 1A
Procedure, shortened: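 RiboGreen fluorescence (ex ~480, em ~520 nm) compared between intact samples and Triton X-100-lysed samples after 15 min at 37 °C in TE buffer, pH 7.5. Percent free RNA is the blank-corrected intact/disrupted ratio.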

Row | Compound | PDI [1] | Size (nm) [1] | % Remaining dose at 6 h [2] | % Remaining dose at 24 h [2] | pKa [3] | 6 h BLI Lipid/MC3 (luciferase (Luc) mRNA) | EE (%) [4]
1 | CCCCCCCCCC(C)(O)CCCCCCCCN(CCO)CCCCCCCC(=O)OC(CCCCCCCC)CCCCCCCC (centres unmarked) [Compound 171, Heptadecan-9-yl 8-((9-hydroxy-9-methyloctadecyl)(2-hydroxyethyl)amino)octanoate] | 0.14 | 100.5 nm | 51.0% | 35.5% | 6.48 | 2.26 | 85.0%
2 | CCCCCCCCC(CCCCCCCC)OC(=O)CCCCCCCN(CCO)CCCCCCCC(=O)O[C@H](C)CCCCCCCC [Compound 172, (R)-Decan-2-yl 8-((8-(heptadecan-9-yloxy)-8-oxooctyl)(2-hydroxyethyl)amino)octanoate] | 0.13 | 77.3 nm | 17.4% | 3.24% | 6.40 | 1.72 | 95.4%
3 | CCCCCCCCCOC(=O)CCCCCCCN(CCO)CCCCCCCC(=O)OC(COCCCCCC)COCCCCCC [Compound 183, 1,3-Bis(hexyloxy)propan-2-yl 8-((2-hydroxyethyl)(8-(nonyloxy)-8-oxooctyl)amino)octanoate] | 0.24 | 245.3 nm | 0.076% | 0% | 6.54 | 0.031 | 32.3%
4 | CCCCCCCCCCCOC(=O)CCCCCN(CCO)CCCCCC(=O)OC(CCCCCCCCCC)CCCCCCCCCC [Compound 185, Henicosan-11-yl 6-((2-hydroxyethyl)(6-oxo-6-(undecyloxy)hexyl)amino)hexanoate] | 0.14 | 69.6 nm | 33.8% | 29.3% | 6.77 | 0.87 | 98.3%
5 | CCCCCCCOC(=O)CCCCCCCCCN(CCO)CCCCCCCCCC(=O)OC(CCCCCC)CCCCCC [Compound 186, Heptyl 10-((2-hydroxyethyl)(10-oxo-10-(tridecan-7-yloxy)decyl)amino)decanoate] | 0.17 | 92.2 nm | 0.051% | 0% | 6.33 | 1.13 | 87.2%
